Measured values taken from patent US6753005B1, “Method for tissue perfusion” (Direct Therapeutics, Inc., priority 1997, dated 2004).
Entries after “also recorded” stand apart in the source; their conditions may differ. Where two headings read alike, the source gives them in different places. Marks after values point to notes of the source that are not given here.

Experiments:
[1] = system: normal canine prostate; experiment: Normal canine prostate model, intraprostatic injection
Experimental: Random-source adult male canines were used in this experiment.
Body surface area (m2) was calculated for each animal using published tables.
On the day of surgery, the animals were preanesthetized with acepromazine (0.22 mg/kg) and atropine (0.05 mg/kg) intramuscularly. General anesthesia was induced with intravenous thiopental sodium (20-25 mg/kg) and, following orotracheal intubation, was maintained with a 0.5-2.0% halothane-oxygen mixture given through a semi-closed circle system. Perioperative antibiotics consisted of intravenous gentamicin (3 mg/kg) on the day of surgery and daily intramuscular gentamicin (3 mg/kg) for seven days following surgery.
In each animal, an 8 French urinary catheter was passed per urethra into the bladder, and the bladder was filled with normal saline. A diagnostic Aloka Echo SSD650 ultrasound machine with a UST 664 5/7.5 MHZ biplanar linear array transrectal probe (Wallingford, Conn.) was used to determine the maximal axial (transverse) width, height, and midline sagittal (longitudinal) length. The length was measured in the midline from the distal most aspect of the apex to the cephalad most portion of the gland. The volume was then determined using the following formula: length×width×½ height. A lower abdominal midline incision was created, and the peritoneal cavity was entered. The bladder and prostate were exposed and the periprostatic fat was carefully dissected off of the base of the gland. Using TRUS imaging of the prostate as well as direct visualization through the peritoneotomy a three inch 20 gauge spinal needle connected to a standard 10-cc luer-lock syringe containing the appropriate aliquot for injection was guided into the base of the right lobe of the prostate. The needle tip was localized within the prostatic parenchyma with ultrasound guidance and appropriately positioned.
Animals were randomly divided into subgroups. Animals A1 and A2 received a volume of dehydrated ethanol equal to 100% of the measured prostate volume while the remaining animals received a volume of 98% dehydrated ethanol equal to 50% of the total gland volume as determined by TRUS imaging. The animals received escalating doses of Carmustine dissolved in dehydrated ethanol: A1 and A2 2 mg/ml; B1 and B2, 5 mg/ml; C1 and C2 12.5 mg/ml; D1 and D2 18 mg/ml; and E1 and E2, 25 mg/ml. All animal subgroups were injected on separate days under general anesthesia through a midline peritoneotomy approach using TRUS guidance for needle placement. The needle was initially positioned at the ventral aspect of the apex of the gland and then withdrawn from apex to base during the injection. The needle was then repositioned toward the dorsal aspect of the gland at the apex and withdrawn toward the base during the injection so that as much of the parenchyma could be covered as possible.
Fourteen days following injection all animals underwent repeat TRUS imaging of the prostate gland under general anesthesia and were then euthanized by exsanguination under deep general anesthesia. The bladders and prostates were excised enbloc and fixed in formalin. If there was any evidence of perirectal inflammation or suspicion of pathology a section of the rectum was removed for pathologic examination. After adequate tissue fixation in formalin, the prostate glands were step sectioned and the volume of the prostate parenchyma affected (cm3) was calculated and quantitated based on the measured length, height and thickness of individual step sections of the gland. The volumes were then added together resulting in a quantification of the total parenchymal volume affected on a prostate gland for prostate gland basis. The tissue was then submitted for histopathologic interpretation.

[2] = system: normal rat liver; experiment: Normal rat liver model, intrahepatic injection; format: in vivo; settings: for Clinical Signs / Gross Findings (liver lesions) / Survival: 2 rats; for Gross Findings (liver lesions): 2 weeks; for Survival: sacrifice 2 weeks
Experimental: 54 male Sprague-Dawley rats 250-300 g in body weight were caged in groups of 2 by treatment group, in standard animal housing facilities and given free access to food and water. Prior to surgery, animals received 0.2 ml intramuscular injection of ketamine and xylazine (30 mg/kg and 4 mg/kg respectively). Rats were anesthetized and fixed on a restraining board. The right upper quadrant of the abdomen was shaved and prepped with betadine solution. A lateral incision approximately 1 cm in length was made 2 cm to the right of the abdominal mid-line and 2 cm below the last rib on the right side and the liver exposed. Under direct visual observation, the solution was injected into the liver slowly over a period of about 2 minutes, using a Hamilton microliter syringe (702) equipped with a 27 gauge needle. The needle was withdrawn and the abdominal incision closed using 4-0 plain gut to seal the peritoneum and skin clips to close the skin. Observations of each animal were made hourly for 4 hours during the day of surgery and daily thereafter for two weeks. At two weeks the animals were sacrificed and their livers examined grossly for lesions at the site of injection.

[3] = system: Walker 256 tumors; settings: for Tumor Free at Time of Death: number of animals
Experimental: Tumor fragments derived from serially transplanted Walker 256 tumors were prepared and transplanted subcutaneously into female Harlan Sprague Dawley rats. Once the tumors reached appropriate size, animals were randomized into treatment groups of 5 or 6 animals and an untreated control group of 10 animals. Tumor volume for each animal was calculated using the formula: volume=(I×w2)/2. Observations included daily visual observation of each animal's general health, tumor measurements three times per week and weight every week. These measurements continued until: efficacy was apparent, the animal was terminal, the tumor became necrotic, tumor interfered with the animal's ability to eat or drink, or ten weeks beyond commencement of dosing.
Fifty rats bearing tumors ranging from 550 to 1634 mm^3 were randomly divided into eight treatment groups and 2 control groups. The following treatments were respectively administered to the eight treatment groups: […]

[4] = all animals, 14 days after injection
[5] = carmustine 5 mg/ml ethanol, 50% of prostate volume, prostate volume 8.42, 14 days
[6] = carmustine 5 mg/ml ethanol, 50% of prostate volume, prostate volume 9.8, 14 days
[7] = carmustine 12.5 mg/ml ethanol, 50% of prostate volume, prostate volume 4.36, 14 days
[8] = carmustine 12.5 mg/ml ethanol, 50% of prostate volume, prostate volume 20.16, 14 days
[9] = carmustine 18 mg/ml ethanol, 50% of prostate volume, prostate volume 27.75, 14 days
[10] = carmustine 18 mg/ml ethanol, 50% of prostate volume, prostate volume 37.2, 14 days
[11] = carmustine 25 mg/ml ethanol, 50% of prostate volume, prostate volume 22.14, 14 days
[12] = 100 μl ethanol + 1.25 mg carmustine (12.5 mg/ml)
[13] = 100 μl ethanol + 2.5 mg carmustine (25 mg/ml)
[14] = 100 μl ethanol + 5 mg carmustine (50 mg/ml)
[15] = 100 μl ethanol + 10 mg carmustine (100 mg/ml)
[16] = 100 μl ethanol, 12.5-50 mg/ml carmustine
[17] = Group VI: carmustine 3.3 mg/ml in absolute ethanol, 100% tumor volume

## O=NN(CCCl)C(=O)NCCCl [Carmustine, carmustine]
[1]; 2-25 mg/ml carmustine in dehydrated ethanol, 14 days
  relation of carmustine concentration to volume of tissue affected: highest concentrations of carmustine were associated with the largest volumes of tissue affected
[1]; all animals
  rectal injuries: no rectal injuries
[1]; [4]
  findings in prostatic parenchyma (TRUS and step sections): hemorrhagic and coagulative necrosis
  findings in the urethra: submucosal hemorrhage, mucosal erosion and inflammation
[1]; carmustine 5 mg/ml ethanol, 50% of prostate volume, prostate volume 8.42
  Periprostatic Tissue Involvement: Marked fat necrosis
[1]; [5]
  Volume Affected Left: 0.68 cc^3
  Volume Affected PU (periurethral): 0 cc^3
  Volume Affected Right: 1.73 cc^3
[1]; carmustine 5 mg/ml ethanol, 50% of prostate volume, prostate volume 9.8
  Periprostatic Tissue Involvement: Cystic necrosis R
[1]; [6]
  Volume Affected Left: 1.61 cc^3
  Volume Affected PU (periurethral): 2.51 cc^3
  Volume Affected Right: 0.85 cc^3
[1]; carmustine 12.5 mg/ml ethanol, 50% of prostate volume, prostate volume 4.36
  Periprostatic Tissue Involvement: Moderate fat necrosis
[1]; [7]
  Volume Affected PU (periurethral): 0.62 cc^3
  Volume Affected left + right: 1.8 cc^3
[1]; carmustine 12.5 mg/ml ethanol, 50% of prostate volume, prostate volume 20.16
  Periprostatic Tissue Involvement: Minimal fat necrosis
[1]; [8]
  Volume Affected Left: 1.8 cc^3
  Volume Affected PU (periurethral): 0 cc^3
  Volume Affected Right: 1.4 cc^3
[1]; carmustine 18 mg/ml ethanol, 50% of prostate volume, prostate volume 27.75
  Periprostatic Tissue Involvement: Marked fat necrosis
[1]; [9]
  Volume Affected Left: 8.35 cc^3
  Volume Affected PU (periurethral): 1.2 cc^3
  Volume Affected Right: 12.31 cc^3
[1]; carmustine 18 mg/ml ethanol, 50% of prostate volume, prostate volume 37.2
  Periprostatic Tissue Involvement: Marked fat necrosis
[1]; [10]
  Volume Affected Left: 11.76 cc^3
  Volume Affected PU (periurethral): 3.84 cc^3
  Volume Affected Right: 9.73 cc^3
[1]; carmustine 25 mg/ml ethanol, 50% of prostate volume, prostate volume 22.14
  Periprostatic Tissue Involvement: Mild fat necrosis
[1]; [11]
  Volume Affected Left: 7.5 cc^3
  Volume Affected PU (periurethral): 0 cc^3
  Volume Affected Right: 4.8 cc^3
[1]; carmustine 25 mg/ml ethanol, 50% of prostate volume, prostate volume 32.64
  Periprostatic Tissue Involvement: Large pelvic abscess
[1]; carmustine 25 mg/ml ethanol, 50% of prostate volume, prostate volume 32.64, 14 days
  Volume Affected left + right + periurethral: 32.64** cc^3
[2]; [12]
  Clinical Signs: ANAS
  Gross Findings (liver lesions): no lesion
  Survival: term
[2]; [13]
  Gross Findings (liver lesions): very small lesions
  Survival: term
[2]; [14]
  Gross Findings (liver lesions): small lesions
  Survival: term
[2]; [15]
  Clinical Signs: Less active &
  Gross Findings (liver lesions): large areas of tissue destruction; also recorded: fice. Large areas
  Survival: term
[2]; [16]
  Clinical signs at sacrifice: appeared normal at sacrifice
  gross examination of the liver: no or small lesions
[2]; solutions containing carmustine up to 50 mg/ml
  toxic effects in normal liver tissue: no toxic effects
[3]; 100% ethanol and 3.3 mg/ml carmustine
  selective effect on tumor cells: selectively kill tumor cells
[3]; [17]
  Complete Regressors/Total: 4/5
  local findings in the area of the tumor: no evidence of scar, hair loss or residual redness
  Tumor Free at Time of Death: 3
[3]; Group VI: carmustine 3.3 mg/ml in absolute ethanol, 100% tumor volume, 2 animals
  Mean Days to Tumor Size 5000 mm^3 after treatment: 29.5 days
[3]; Group VI: carmustine 3.3 mg/ml in absolute ethanol, 100% tumor volume, listed as carmustine
  Tumor Free at Time of Death: three
